The record followed here is US12629374B2, “Antimalarial agents” (Merck Sharp & Dohme LLC, priority 2020, dated 2026).

One experiment concerns ring stage parasites. Kind of experiment: Parasite growth potency assay, 72 hours, LDH readout. The note with it: 72 h, parasite growth measured by LDH assay after 72 hours at 37° C.; 0.7% rings, 2% haematocrit; read-out: EC50. The format is cell-based. As to the method:
The parasite stock was maintained at 4% haematocrit in RPMI-Hepes media buffered with sodium bicarbonate and supplemented with 5% heat inactivated human serum and 0.5% albumax.
On the day of assay set up, a blood smear of the parasite culture was Giemsa stained and counted. The parasitemia was adjusted to 0.7% rings and the haematocrit was diluted to 2% in RPMI-Hepes media buffered with sodium bicarbonate and supplemented with 5% heat inactivated human serum and 0.5% albumax. 30 ul of diluted parasites are then added into 10 ul of media+compound in pre-prepared Greiner TC assay plates. Parasite assay plates were placed in gassed humidified boxes in single layer and allowed to incubate at 37° C. for 72 hours. After 72 hours growth, assay plates are sealed with parafilm and frozen flat, in single file at −80° C. overnight. On the following day, assay plates are allowed to thaw at room temperature for 4 hours to which an LDH assay is performed to measure parasite growth.
On to `CCC1(CC)CC(=O)N([C@H](CCOC(F)F)c2cccc(C(=O)N[C@@H]3c4ccccc4C[C@@]3(C)O)c2)C(=N)N1` [Example 158A, 3-[1-(4,4-diethyl-2-imino-6-oxo-hexahydropyrimidin-1-yl)-3-(difluoromethoxy)propyl]-N-[(1R,2R)-2-hydroxy-2-methyl-indan-1-yl]benzamide], for which the 50% effective concentration (EC50) (in general, the concentration needed to bring the measured effect to its halfway point) is 2.6 nM.

For the compound `CCC1(CC)CC(=O)N(Cc2cc(C(=O)NC3CC(C)(C)Oc4ccccc43)ccn2)C(=N)N1` (stereo not shown) [Example 80, [1-[[4-[(2,2-dimethylchroman-4-yl)carbamoyl]pyridin-1-ium-2-yl]methyl]-4,4-diethyl-6-oxo-hexahydropyrimidin-2-ylidene]ammonium; 2,2,2-trifluoroacetate], the EC50 is 1.7 nM.

`CCC1(CC)CC(=O)N([C@H](Cc2ccccc2)c2cccc(C(=O)N[C@H]3CCOc4ccccc43)c2)C(=N)N1` [Example 40, [1-[1-[3-[[(4S)-chroman-4-yl]carbamoyl]phenyl]-2-phenyl-ethyl]-4,4-diethyl-6-oxo-hexahydropyrimidin-2-ylidene]ammonium; 2,2,2-trifluoroacetate]: the EC50 came to 9.7 nM. Same read-out and setting: as for `CCC[C@H](c1cccc(C(=O)N[C@H]2CCc3ccccc32)c1)N1C(=N)NC(CC)(CC)CC1=O` [Example 76, [4,4-diethyl-1-[1-[3-[[(1S)-indan-1-yl]carbamoyl]phenyl]butyl]-6-oxo-hexahydropyrimidin-2-ylidene]ammonium; 2,2,2-trifluoroacetate], the figure is 0.9 nM; as for `CCC1(CC)CC(=O)N(Cc2cccc(C(=O)N[C@H]3c4ccccc4OCC3(C)O)c2)C(=N)N1` (stereo in doubt) [Example 131B, 3-[(4,4-diethyl-2-imino-6-oxo-hexahydropyrimidin-1-yl)methyl]-N-(3-hydroxy-3-methyl-chroman-4-yl)benzamide], 20.2 nM; as for `CCC[C@H](c1cccc(C(=O)N[C@H]2CC3(CCC3)Oc3ccccc32)c1)N1C(=N)NC(CC)(CC)CC1=O` (stereo in doubt) [Example 212B, [4,4-diethyl-6-oxo-1-[(1R)-1-[3-[[(4R)-spiro[chromane-2,1′-cyclobutane]-4-yl]carbamoyl]phenyl]butyl]hexahydropyrimidin-2-ylidene]ammonium; 2,2,2-trifluoroacetate], 0.9 nM.

Consider `CCC1(CC)CC(=O)N([C@H](CCOC)c2cccc(C(=O)NC3c4ccccc4CCC3O)c2)C(=N)N1` (stereo partly drawn) [Example 226, 3-[(1R)-1-(4,4-diethyl-2-imino-6-oxo-hexahydropyrimidin-1-yl)-3-methoxy-propyl]-N-(2-hydroxytetralin-1-yl)benzamide], for which the 50% effective concentration (EC50) amounted to 2.2 nM. Same read-out and setting: as for `COCC[C@H](c1cccc(C(=O)N[C@@H]2c3ccccc3OC(C)(C)[C@@]2(C)O)c1)N1C(=N)NC(C)(C)CC1=O` [Example 231, N-[(3S,4R)-3-hydroxy-2,2,3-trimethyl-chroman-4-yl]-3-[(1R)-1-(2-imino-4,4-dimethyl-6-oxo-hexahydropyrimidin-1-yl)-3-methoxy-propyl]benzamide], the figure is 2.9 nM; as for `CC#CCC[C@H](c1cccc(C(=O)N[C@H]2CCOc3ccccc32)c1)N1C(=N)NC(CC)(CC)CC1=O` [Example 74, [1-[1-[3-[[(4S)-chroman-4-yl]carbamoyl]phenyl]hex-4-ynyl]-4,4-diethyl-6-oxo-hexahydropyrimidin-2-ylidene]ammonium; 2,2,2-trifluoroacetate], 0.9 nM.

The experiment is the same for the next values; noted with them: parasite growth measured by LDH assay after 72 hours at 37° C.; 0.7% rings, 2% haematocrit; read-out: EC50.
As to `CCC1(CC)CC(=O)N([C@H](CCOC(F)F)c2cccc(C(=O)N[C@@H]3c4ccccc4C[C@]3(C)O)c2)C(=N)N1` [Example 158B, 3-[1-(4,4-diethyl-2-imino-6-oxo-hexahydropyrimidin-1-yl)-3-(difluoromethoxy)propyl]-N-[(1R,2S)-2-hydroxy-2-methyl-indan-1-yl]benzamide], the half-maximal effective concentration (EC50) turned out to be 2.4 nM.
